Assay results published in patent US4436799A, “Photographic products and processes employing novel nondiffusible magenta dye-releasing compounds and precursors thereof” (priority 1983, dated 1984).
Values joined by “and” are separate entries in the source; they are usually repeats but may differ in a detail not shown here. Equal values may be shown once.

Experiments:
Format in all cases: physicochemical
[1] = Dye diffusion, solution test; details: pH 13.4, 0.0025 M dye
Excerpt: (§1) The released dyes in Table I were also subjected to the conditions of two different dye diffusion tests. One, the "solution test" involved dissolving the dye in a viscous composition and transferring it through a receiving element which contains an opaque and reflecting layer in addition to the mordant layer. The other, a "gel pad test" involved imbibing the dye from solution into a thick gelatin layer, and then transferring it by direct lamination to the same receiving element which had been preswollen by soaking 5 minutes in a solution of […].
(§2) A transparent poly(ethylene terephthalate) film support coated with
(§3) (3) an overcoat layer of gelatin (4.3).
The viscous composition was prepared from 46.2 g potassium hydroxide and 54 g carboxymethylcellulose dissolved in 1200 ml water. […] Measurement of the rate of dye diffusion was commenced at the point at which half of the laminate had passed through the rollers. The appearance of dye on the mordant was measured at λmax as diffuse reflection density vs. time. The reflection density was converted to transmission density by computer with the aid of a mathematical relation derived from a previous calibration. A plot of transmission density, which is proportional to concentration vs. time, was derived; and the value of t-1/2 of dye transfer, the time in seconds required to obtain one-half of the maximum transmission density, calculated.

[2] = Comparative spectra on mordanted strips (Example 2); details: 2:1 nickel complex on mordanted strip; for HBW: band width at half Dmax; for λmax: wavelength(s) at actual Dmax
Excerpt: The absorption envelope of each of the metallized dyes is described by (1) the wavelength(s), λmax, at the actual Dmax, (2) the λ1/2 which is the mean of the wavelength limits of the absorption envelope at half the maximum density, and (3) the halfband width (HBW) which is the band width at half the Dmax. A narrow HBW generally designates a purer hue.

[3] = Dye diffusion, gel pad test; details: 0.1 M KOH, 1.3×10^-3 M dye
Excerpt: as §1, §2, §3
A donor element, containing a thick pad of deionized acid-processed gelatin (26 g/m^2) hardened with 2 percent bis(vinylsulfonylmethyl)ether, was imbibed with a solution of 0.1 M in potassium hydroxide and 1.3×10^-3 M in dye. The pad was soaked to full penetration, surface wiped, and then laminated in direct contact to the above receiving element which had been presoaked for 5 minutes at 0.1 M KOH. The t-1/2 of dye transfer was obtained as in the solution test.

[4] = Transmission spectra of Ni-dye complexes on mordanted receiving element (Example 1); details: pH 7.0 buffer
[5] = Spectra of Ni-dye complexes in solution; details: 3:1 dioxane:water, pH 7, excess nickel ion; for Solution HBW of Ni-dye complex: half band width
Excerpt: The receiver was removed from the dye solution, washed in distilled water, placed in a pH 7.0 buffer solution and dried. Transmission spectra obtained on each sample of the mordanted dyes were normalized by computer to a density of 1.0. The characteristic wavelength of the dye, λ1/2 in nm, is the mean of the wavelength limits of the absorption envelope at half the maximum density. The HBW ("half band width") in nm is the range or distance between those limits. The dye solution spectrum in 3:1 dioxane:water at pH 7 in the presence of excess nickel ion is also given.

[6] = Light stability (percent fade after HID xenon arc irradiation); details: 10 days HID 6000 W xenon arc, 50,000 lux, Wratten 2B filter, approx. 38° C.
Excerpt: An alternative receiving element was used with the premetallized dye-complexes. It comprised a poly(ethylene terephthalate) film support having thereon a layer of gelatin (1.1 g/m^2) and a mordant layer of poly(styrene-co-1-vinylimidazole-co-3-benzyl-1-vinylimidazolium chloride (50:40:10) (4.5 g/m^2) and gelatin (2.2 g/m^2).
The above receiving elements at pH 7 were then subjected to 10 days irradiation by a high intensity daylight (HID), 6000 W Xenon arc lamp, the sample receiving 50,000 lux through a Wratten 2B (ultraviolet) filter at approximately 38° C. and low humidity. The percent fade represents the loss in density at λmax after irradiation.

[7] = Extinction in solution with Ni2+ (synthesis examples)
Experimental: To a solution of 5.5 g (12.1 mmol) Compound E in 200 ml tetrahydrofuran, 100 ml pyridine and 4.8 g (37.2 mmol) N,N-diisopropylethylamine was added 3.0 g (3.17 mmol) 3,6-bis(1-p-t-butylphenylethyl)-2,5-bis(N-n-dodecylchloroformamidomethyl)benzoquinone (see U.S. Pat. No. 4,204,870, Col. 31). After stirring for 1 hour, an additional 2.5 g (2.64 mmol) of the acid chloride is added and the reaction stirred 28 hours at room temperature. The crude reaction mixture was concentrated to ca. 100 ml in vacuo at 40° C. and the residue was partitioned between ethyl acetate and 3 N HCl. The layers were separated, the organic phase washed with 3 N HCl (until washings were acidic), water and saturated sodium chloride solution. After drying (MgSO4) the organic phase was evaporated in vacuo and the residue recrystallized twice from 350-400 ml ethanol. Yield 7.5 g (72 percent) of yellow solid: ε^550 =13.0×10^4 (3:1 dioxane-pH 6 buffer+excess Ni^2+).
A solution of 5.0 g (31.4 mmol) quinoline-5,8-quinone [T. Urbanski and S. Krzyzanowski, Roczniki Chem., 27, 390 (1953); Chem. Abstr., 49, 1041b (1955)] in 50 ml ethyl alcohol and 100 ml tetrahydrofuran was chilled to <5° C. Concentrated HCl (1 ml) and a cold slurry of 10.0 g (31.8 mmol) 3-chloro-5-(m-hydroxyphenylsulfamoyl)-7-pyridylhydrazine in 100 ml ethyl alcohol/0.5 ml concentrated HCl were added in that order. […]

[8] = nickel sulfate/gelatin + poly(4-vinylpyridine)/gelatin mordant receiver, normalized to density 1.0
[9] = premetallized compound, alternative receiving element

Molecule	Dye diffusion t1/2, Soln. [1] [s]	λ1/2 [2] [nm]	HBW [2] [nm]	λmax [2]	Dye diffusion t1/2, Gel Pad [3] [s]	Mordant HBW of Ni-dye complex [4, 8] [nm]	Mordant λ1/2 of Ni-dye complex [4, 8] [nm]	Solution λ1/2 of Ni-dye complex [5] [nm]	Solution HBW of Ni-dye complex [5] [nm]	% Fade (loss in density at λmax) ([6]; low humidity, pH 7) [%]	also measured
2:1 nickel complex of 2-(2-pyridylazo)-4-sulfamoyl-1-naphthol [Control Dye 1]	49	537	101	553 nm and 567 nm	281						
2:1 nickel complex of 6-(2-carboxy-4-chlorphenylazo)-2,3-pyridinediol [Control Dye 3]		545	86	555 nm							
NS(=O)(=O)c1cccc(NS(=O)(=O)c2cnc(N=Nc3ccc(O)c4cccnc34)c(Cl)c2)c1 [A]	41				183	76	553	548	70	2	Mordant HBW of Ni-dye complex [4, 9]: 85 nm; Mordant λ1/2 of Ni-dye complex [4, 9]: 555 nm; Solution HBW of Ni-dye complex ([5]; listed as A'): 68 nm; Solution λ1/2 of Ni-dye complex ([5]; listed as A'): 545 nm; Dye diffusion t1/2, Gel Pad ([3]; listed as A'): 235 s; % Fade (loss in density at λmax) [6, 9]: 3%
NS(=O)(=O)c1cnc(N=Nc2ccc(O)c3cccnc23)c(Cl)c1 [B]	31				108	67	545	543	65	0	Mordant HBW of Ni-dye complex [4, 9]: 71 nm; Mordant λ1/2 of Ni-dye complex [4, 9]: 546 nm; Solution HBW of Ni-dye complex ([5]; listed as B'): 68 nm; Solution λ1/2 of Ni-dye complex ([5]; listed as B'): 544 nm; Dye diffusion t1/2, Gel Pad ([3]; listed as B'): 161 s; % Fade (loss in density at λmax) [6, 9]: 4%
CCCCCCCCCCCCN(CC1=C(C(C)c2ccc(C(C)(C)C)cc2)C(=O)C(CN(CCCCCCCCCCCC)C(=O)Oc2cccc(NS(=O)(=O)c3cnc(N=Nc4ccc(O)c5cccnc45)c(Cl)c3)c2)=C(C(C)c2ccc(C(C)(C)C)cc2)C1=O)C(=O)Oc1cccc(NS(=O)(=O)c2cnc(N=Nc3ccc(O)c4cccnc34)c(Cl)c2)c1 (stereo not drawn) [Compound 3]											ε^550 ([7]; 3:1 dioxane-pH 6 buffer + excess Ni^2+): 13.0×10^4
COc1cc(S(=O)(=O)NC(C)(C)C)cnc1N=Nc1ccc(O)c2cccnc12 [Compound C]	37	545	67	560 nm		82	563	560	79		
CC(C)NS(=O)(=O)c1cnc(N=Nc2ccc(O)c3cccnc23)c(Cl)c1 [Compound D]	44					66	547	543	68		
O=S(=O)(Nc1cccc(O)c1)c1cnc(N=Nc2ccc(O)c3cccnc23)c(Cl)c1 [Compound E, 8-[3-Chloro-5-(m-hydroxyphenylsulfamoyl)-2-pyridylazo]-5-quinolinol]	39					70	550	544	65	1	ε^550 ([7]; 3:1 dioxane-pH 6 buffer + Ni^2+): 6.6×10^4
CN(c1ccccc1)c1ccc(N=Nc2ccc(S(N)(=O)=O)cn2)c([O-])c1.CN(c1ccccc1)c1ccc(N=Nc2ccc(S(N)(=O)=O)cn2)c([O-])c1.[Ni+2] [Control Dye 2, 2:1 nickel complex of 2-(5-sulfamoyl-2-pyridylazo)-5-(N-methylanilino)phenol]	45	540	116	540 nm and 572 nm	265						
CN(c1cccc(O)c1)S(=O)(=O)c1cnc(N=Nc2ccc(O)c3cccnc23)c(Cl)c1 [F]	69					66	546	543	68	0	
O=S(=O)(Nc1ccccc1)c1cnc(N=Nc2ccc(O)c3cccnc23)c(Cl)c1 [G]	81					70	548	542	65	0	
CC(C)NS(=O)(=O)c1cnc(N=Nc2ccc(O)c3cc(C(=O)Nc4cccc(O)c4)c(Cl)nc23)c(Cl)c1 [H]	49					72	549	548	63	7	
COc1cc(S(=O)(=O)Nc2cccc(O)c2)cnc1N=Nc1ccc(O)c2cccnc12 [J]	40					87	568	559	78	0	
